Experimental data: patent US20220282217A1, “COMPOSITIONS AND METHODS FOR PREPARING T CELL COMPOSITIONS AND USES THEREOF” (priority 2019, published 2022)
Where a SMILES comes first, the peptide text is derived from it.

Tests used:
HLA-B07.02 = HLA-B07.02 (Homo sapiens, UniProt P01889); assay: Class I MHC peptide binding affinity (displacement of radiolabeled reference peptide); conditions: Allele B07.02; read-out: Observed Affinity (IC50; (nM))
HLA-A02.01 [1] = biological target: HLA-A02.01 (Homo sapiens, UniProt P04439, D140Y/D185E/D98H/E176V/E277Q/G131W/G231S/I119V/I121R/I166T/I218V/L300P/L318F/N151K/N90K/P208A/P217A/Q86G/Q94H/R138H/R169H/T345S); assay: as above; conditions: for IC50: allele A02.01, read-out: Observed Affinity (IC50, (nM))
Method in brief: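 Displacement format in which varying amounts of peptide compete for 2 days with a radiolabeled reference ligand prebound to class I MHC, residual complex-associated label being measured after gel-filtration separation.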

HLA-A24.02 = assay: as above; design: species or system human; conditions: allele A24.02; read-out: Observed Affinity (IC50; (nM))
HLA-A02.01 [2] = biological target: T1, HLA-A02.01 (Homo sapiens, UniProt P04439, D140Y/D185E/D98H/E176V/E277Q/G131W/G231S/I119V/I121R/I166T/I218V/N151K/N90K/P208A/P217A/Q86G/Q94H/R138H/R169H); assay: Class I MHC peptide binding stability (pMHC-I dissociation, 125I-labeled light chain); conditions: for Stability (T1/2 (h)): allele A02.01
T1 construct: made in house; host or cells: E. coli

## CC(C)C[C@H](NC(=O)[C@H](CC(C)C)NC(=O)[C@H](Cc1c[nH]cn1)NC(=O)CNC(=O)[C@H](CCC(N)=O)NC(=O)[C@H](CC(N)=O)NC(=O)[C@H](CCC(N)=O)NC(=O)[C@@H](NC(=O)[C@@H](N)CCCNC(=N)N)C(C)C)C(=O)O (H-RVQNQGHLL-OH; N-terminus and C-terminus assumed)
HLA-B07.02
  IC50: 826 nM

## CC(C)C[C@H](NC(=O)[C@H](CCC(N)=O)NC(=O)[C@H](CC(C)C)NC(=O)[C@H](Cc1c[nH]cn1)NC(=O)[C@H](CC(N)=O)NC(=O)[C@H](CCC(N)=O)NC(=O)[C@H](CCCNC(=N)N)NC(=O)[C@H](CO)NC(=O)[C@@H](N)CCCCN)C(=O)O (H-KSRQNHLQL-OH; N-terminus and C-terminus assumed)
HLA-B07.02
  IC50: 78 nM

## CC(C)C[C@H](NC(=O)CNC(=O)[C@H](CO)NC(=O)[C@H](CC(=O)O)NC(=O)[C@H](CCCCN)NC(=O)[C@H](CO)NC(=O)[C@H](Cc1ccc(O)cc1)NC(=O)[C@H](C)NC(=O)[C@@H]1CCCN1C(=O)[C@@H](N)Cc1ccc(O)cc1)C(=O)O (H-YPAYSKDSGL-OH; N-terminus and C-terminus assumed)
HLA-B07.02
  IC50: 79.5 nM

## CC(C)C[C@H](NC(=O)[C@@H]1CCCN1C(=O)[C@@H](N)CCCNC(=N)N)C(=O)N[C@@H](CCC(N)=O)C(=O)N[C@H](C(=O)N[C@@H](Cc1c[nH]cn1)C(=O)N[C@H](C(=O)N[C@@H](CC(C)C)C(=O)N1CCC[C@H]1C(=O)N[C@@H](CCC(=O)O)C(=O)O)C(C)C)[C@@H](C)O (H-RPLQTHVLPE-OH; N-terminus and C-terminus assumed)
HLA-B07.02
  IC50: 2530 nM

## CSCC[C@H](NC(=O)[C@H](CCC(=O)O)NC(=O)[C@H](CC(C)C)NC(=O)[C@H](CC(C)C)NC(=O)[C@H](CC(C)C)NC(=O)CNC(=O)[C@H](Cc1ccc(O)cc1)NC(=O)[C@H](CC(C)C)NC(=O)[C@@H]1CCCN1C(=O)[C@@H](N)C(C)C)C(=O)O (H-VPLYGLLLEM-OH; N-terminus and C-terminus assumed)
HLA-B07.02
  IC50: 27.9 nM

## CSCC[C@H](NC(=O)[C@H](CC(C)C)NC(=O)[C@H](CCC(N)=O)NC(=O)[C@@H](N)CCSC)C(=O)N1CCC[C@H]1C(=O)N[C@@H](Cc1ccccc1)C(=O)NCC(=O)N[C@@H](CS)C(=O)N[C@@H](CC(C)C)C(=O)N[C@@H](CC(C)C)C(=O)O
HLA-A02.01 [1]; EGFR T790M peptides, HLA allele A02.01, read-out: Affinity
  Kd: 16.3 nM
HLA-A02.01 [1]
  IC50: 20 nM
HLA-A24.02
  IC50: 23600 nM
HLA-A02.01 [2]; EGFR T790M peptides, HLA allele A02.01
  Stability (half-life (hr.)): 22.87 min
HLA-A02.01 [2]
  Stability (T1/2 (h)): 0.4 h

## CC[C@H](C)[C@H](NC(=O)[C@@H]1CCCN1C(=O)[C@H](CCCNC(=N)N)NC(=O)[C@H](Cc1c[nH]c2ccccc12)NC(=O)[C@H](CC(N)=O)NC(=O)[C@H](CCSC)NC(=O)CNC(=O)CNC(=O)[C@H](CCSC)NC(=O)[C@@H](N)CS)C(=O)O
HLA-A02.01 [1]
  IC50: 346 nM
HLA-A24.02
  IC50: 4450 nM
HLA-A02.01 [2]
  Stability (T1/2 (h)): 0.4 h

## CC(C)C[C@H](NC(=O)[C@@H](NC(=O)[C@H](CO)NC(=O)[C@@H]1CCCN1C(=O)[C@H](CC(C)C)NC(=O)[C@H](Cc1ccccc1)NC(=O)[C@@H](NC(=O)[C@H](Cc1ccc(O)cc1)NC(=O)[C@@H](NC(=O)CN)C(C)C)[C@@H](C)O)[C@@H](C)O)C(=O)O (H-GVYTFLPSTL-OH; N-terminus and C-terminus assumed)
HLA-A02.01 [1]
  IC50: 1200 nM
HLA-A24.02
  IC50: 7700 nM
HLA-A02.01 [2]
  Stability (T1/2 (h)): 0.4 h

## CC[C@H](C)[C@H](NC(=O)[C@H](CO)NC(=O)[C@H](Cc1c[nH]c2ccccc12)NC(=O)[C@H](Cc1c[nH]cn1)NC(=O)[C@H](C)NC(=O)[C@@H]1CCCN1C(=O)[C@H](CCSC)NC(=O)[C@H](CC(C)C)NC(=O)[C@H](CO)NC(=O)[C@@H](N)CC(C)C)C(=O)O
HLA-A02.01 [1]
  IC50: 164 nM
HLA-A24.02
  IC50: 12400 nM
HLA-A02.01 [2]
  Stability (T1/2 (h)): 0.4 h

## CSCC[C@H](NC(=O)[C@H](CC(C)C)NC(=O)[C@H](CO)NC(=O)[C@H](CC(C)C)NC(=O)[C@@H]1CCCN1C(=O)[C@H](CCC(N)=O)NC(=O)[C@H](CCSC)NC(=O)[C@H](CCC(N)=O)NC(=O)[C@@H](N)Cc1ccccc1)C(=O)O
HLA-A02.01 [1]
  IC50: 553 nM
HLA-A24.02
  IC50: 14600 nM
HLA-A02.01 [2]
  Stability (T1/2 (h)): 0.3 h
